Reference: patent US12376594B2, “Pest control kit and method” (priority 2019, dated 2025)

Legend:
sciarid fly larvae = assay: Field trial, control of sciarid fly larvae in mushroom production; assay type: in vivo, Lycoriella spp.; settings: first week of application
Description: Treatments consisted of: Carbofuran, Teflubenzuron, Steinernema feltiae alone or with Wetting agent composition (as Pest control kit-S). Trial was conducted in mushroom production farm in UK in 2016-17. Mushrooms were naturally infected with sciarid larvae and numbers counted week 1 and 3 post treatments. Each treatment was replicated 4 times with 15 plants/treatment.
Fungus gnats, also known as sciarid flies, found on and around growing media, are a major pest for greenhouse and polytunnel ornamental crops. The sciarid fly larvae are responsible for causing damage to an extensive variety of economically important potted plants directly through feeding on roots and stalk tissue of seedlings, cuttings and younger plants. They also cause damage indirectly through the transmission of fungal disease through the wounds caused by sciarid larvae. Pot plants known to be susceptible to sciarid attack include Poinsettia, Azalea, Cyclamen, Kalanchoe, Exacum, Gerbera, Begonia and others. All kinds of young plants and young rooted cuttings (vegetables, ornamentals and young nursery plants) are highly susceptible to sciarid larvae. […] Mushrooms were harvested for up to 4 weeks and number of dead and live larvae were counted. […]
The number of surviving larvae was transformed into percentage efficacy using the equation below and analysed using analysis of variance (ANOVA). […]

[1] = tested on: Welsh chafer, Hoplia philanthus grubs; assay: Field trial, control of chafer grubs in golf course; assay type: in vivo; settings: The Grove Golf Club, nematodes 2.5 billion per hectare twice weekly, Chlorpyrifos 2 litres a.i. per hectare once
Description: Trial was conducted at The Grove Golf Club, Watford, London, UK between May 2017 and October 2018. Treatments consisted of: Heterorhabditis bacteriophora 2.5 billion/ha applied alone, Pest control kit-C 2.5 billion/ha applied with Wetting agent composition (10 L/ha) and Chlorpyrifos (Equity) 2 L a.i./ha. All treatments were applied using soil injector followed conventional boom sprayer. Soil samples were taken at 2, 4, 6, and 8 weeks post application to assess grub population.
Field trials were conducted on a naturally infested tees, green and fairways containing a mixture of Welsh chafer, Hoplia philanthus (90%), Garden chafer, Phyllopertha horticola (3%), Summer chafer, Amphimallon solstitialis (1%), May beetle, Melolontha (4%) and wireworms Agriotes species (3%) at The Grove Golf Club, Watford, and Ashridge Golf Club, Berkhamsted, UK. […] No natural nematodes were detected by baiting soil samples with Galleria mellonella larvae.
One week before treatment, the pre-treatment larval density was determined in tees, greens and fairways (see FIG. 4) by taking three 16×16×10 to 15 cm soil plugs with a shovel or golf Hole Cutter (10 cm diameter). The living larvae were counted and expressed as number of larvae per square meter. […]
The treatments included: • 1. […] The larval density after treatment was determined 2, 4, 6, or 8 weeks after nematode or chlorpyrifos application. […]

Structure (SMILES)	Sciarid fly larvae control (sciarid fly larvae) [%]	Control of chafer grubs [1] [%]
O=C(NC(=O)c1c(F)cccc1F)Nc1cc(Cl)c(F)c(Cl)c1F [Teflubenzuron]	71	
CCOP(=S)(OCC)Oc1nc(Cl)c(Cl)cc1Cl [Chlorpyrifos]		62
